{
  "source": "paper PMC8952364",
  "about": "“Polyphenols as Inhibitors of Antibiotic Resistant Bacteria—Mechanisms Underlying Rutin Interference with Bacterial Virulence” (Pharmaceuticals, 2022)",
  "key": {"[1]": {"system": "P. aeruginosa IBRS P001", "assay": "Antimicrobial microdilution assay (MIC/MBC)", "format": "cell-based, Pseudomonas aeruginosa", "settings": "Pseudomonas aeruginosa, IBRSP001; for MIC: read-out: MIC", "how_it_was_run": "(§1)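 Polyphenols 0.0039–1 mg/mL, stocks in 30% ethanol; inoculum 0.5 McFarland diluted twenty-fold, mixed 1:10; 24 h, 37 °C. MIC = no visible growth (binocular microscope). Streptomycin positive control, ethanol negative control; triplicate.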"}, "[2]": {"system": "P. aeruginosa MMA83", "assay": "Antimicrobial microdilution assay (MIC/MBC)", "format": "cell-based, Pseudomonas aeruginosa", "settings": "Pseudomonas aeruginosa, MMA83", "how_it_was_run": "as §1"}, "[3]": {"system": "24 h old P. aeruginosa IBRS P001 biofilms", "assay": "Biofilm eradication, Congo red binding assay (exopolysaccharide)", "format": "cell-based, Pseudomonas aeruginosa", "protocol": "The estimation of rutin’s impact on biofilm exopolysaccharide production (EPS) was determined by the Congo red binding assay. P. aeruginosa IBRS P001 biofilm EPS production was determined as previously described. […] The planktonic cells were removed, and the adherent cells were washed with PBS. Wells were stained with 1% (w/v) Congo red (SigmaAldrich, Germany) in the dark for 30 min. Wells were aspirated and subsequently the bound dye was solubilized with 200 μL DMSO. Absorbance at 490 nm was measured in a microtiter plate reader Multiskan™ FC microplate photometer (Thermo Scientific™, United States) and the inhibition percentage of EPS production was calculated according to the following equation:%Inhibition = [(A490control − A490sample)/A490control] × 100\nThe bacterial cells were incubated in TSB enriched with 2% glucose in 96-well plates (Sarstedt, Germany) with adhesive bottom at 37 °C for 24 h. After incubation, wells were washed with PBS, and rutin (MBC–4 MBC) in TSB with 2% glucose was added. Incubation continued at 37 °C for another 24 h. The planktonic cells were removed.\nThe assays continued as described above for the crystal violet antibiofilm assay for the measurement of biofilm mass, biofilm MTT assay for the interference with cell viability, Congo red binding assay for estimation of exopolysaccharide production, and eDNA assay."}, "[4]": {"system": "P. aeruginosa IBRS P001 biofilm", "assay": "Crystal violet antibiofilm assay (biofilm formation)", "format": "cell-based, Pseudomonas aeruginosa", "settings": "24 h", "how_it_was_run": "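After incubation, biofilms were washed with PBS (pH 7.4), methanol-fixed and stained 30 min with 0.1% crystal violet. Stain was solubilised in 96% ethanol and read at 620 nm. Values are biofilm-forming capacity (%) relative to control.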"}, "[5]": {"system": "mvfR", "assay": "RT-qPCR analysis of QS genes", "format": "cell-based, Pseudomonas aeruginosa", "settings": "0.5 MIC, 0.25 mg/mL, vs untreated control", "protocol": "(§2) Reverse transcription-quantitative PCR (RT-qPCR) was performed to reveal the impact of rutin on the P. aeruginosa IBRS P001 quorum sensing (QS) regulatory genes expression. The total RNA was extracted from the P. aeruginosa IBRS P001 test strain (grown for 10 h, 37 °C, aerobically) cultivated in Mueller-Hinton medium and supplemented with rutin (0.250 mg/mL, final concentration) or without it by an RNeasy Mini Kit (Qiagen, Hilden, Germany). The same volume of the ethanol (solvent) was added in the positive control. The total RNA was then treated with DNase I using an Ambion DNA-freeTM Kit (ThermoFisher, Waltham, MA, USA) and reverse transcribed by a Rever-tAid RT Reverse transcription Kit (ThermoFisher, Waltham, MA, USA) according to the manufacturer’s instructions. […] Obtained data were normalized against the ribosomal gene rpsL as an internal control following the 2^−ΔΔCT method. Experiments were done in triplicate."}, "[6]": {"system": "pqsA", "assay": "RT-qPCR analysis of QS genes", "format": "cell-based, Pseudomonas aeruginosa", "settings": "0.5 MIC, 0.25 mg/mL, vs untreated control", "protocol": "as §2"}, "[7]": {"system": "rhlR", "assay": "RT-qPCR analysis of QS genes", "format": "cell-based, Pseudomonas aeruginosa", "settings": "0.5 MIC, 0.25 mg/mL, vs untreated control", "protocol": "as §2"}, "[8]": {"system": "lasR", "assay": "RT-qPCR analysis of QS genes", "format": "cell-based, Pseudomonas aeruginosa", "settings": "0.5 MIC, 0.25 mg/mL, vs untreated control", "protocol": "as §2"}, "[9]": {"system": "lasI", "assay": "RT-qPCR analysis of QS genes", "format": "cell-based, Pseudomonas aeruginosa", "settings": "0.5 MIC, 0.25 mg/mL, vs untreated control", "protocol": "as §2"}, "[10]": {"system": "rhlI", "assay": "RT-qPCR analysis of QS genes", "format": "cell-based, Pseudomonas aeruginosa", "settings": "0.5 MIC, 0.25 mg/mL, vs untreated control", "protocol": "as §2"}, "[11]": {"system": "P. aeruginosa MTCC 2488", "parameters": "method as in doi:10.1016/j.foodcont.2018.02.044", "settings": "48 h incubation, cited from earlier work"}, "[12]": {"system": "MRSA IBRS MRSA 011", "format": "cell-based, Staphylococcus aureus", "protocol": "For the catheter biofilm eradication assay, P. aeruginosa and MRSA were incubated in TSB with 2% glucose with 1 cm long catheters in 24-well plates at 37 °C for 24 h. […] Subsequently, the catheters were washed and treated, as described above."}, "[13]": {"system": "P. aeruginosa IBRS P001", "assay": "Catheter biofilm inhibition model", "format": "cell-based, Pseudomonas aeruginosa", "settings": "MIC and 0.5 MIC of rutin, 24 h", "protocol": "The method was performed as described previously, with some modifications. Sterile silicon 16-mm Romed catheters (Van Oostveen Medical, Wilnis, The Netherlands) were cut into 1 cm lengths and placed in 24-well plates (Sarstedt, Nümbrecht, Germany). P. aeruginosa IBRS P001 and MRSA in TSB with 2% glucose (Torlak, Belgrade, Serbia) and rutin (0.25–1 MIC) were added for the inhibition assay. After incubation (37 °C, 24 h), the catheters were washed with PBS and transferred to 1.5 mL tubes. PBS was added and tubes were vortexed vigorously. The samples were diluted and seeded onto Plate Count Agar (HiMedia Laboratories, Mumbai, India). After being incubated at 37 °C for 24 h, the CFU (colony forming units) count was determined and the inhibition percentage relative to the untreated control was calculated."}, "[14]": {"settings": "subcultivation, 24 h at 37 °C, read-out: MBC"}},
  "note": "Like-named read-outs stand apart in the source and are kept apart here.",
  "data": [
    {"smiles": "C[C@@H]1O[C@@H](OC[C@H]2O[C@@H](Oc3c(-c4ccc(O)c(O)c4)oc4cc(O)cc(O)c4c3=O)[C@H](O)[C@@H](O)[C@@H]2O)[C@H](O)[C@H](O)[C@H]1O", "note": "[Rutin, rutin]", "values": [
      {"measurement": "MIC", "setting": "[1]; 37 °C, 24 h", "value": 500, "unit": "µg/mL"},
      {"measurement": "MIC", "setting": "[1]; restated in the discussion", "value": 500, "unit": "µg/mL"},
      {"measurement": "MBC", "setting": "[1]; [14]", "value": 1000, "unit": "µg/mL"},
      {"measurement": "MIC", "setting": "[2]; 37 °C, 24 h, read-out: MIC", "value": 500, "unit": "µg/mL"},
      {"measurement": "MBC", "setting": "[2]; [14]", "value": 500, "unit": "µg/mL"},
      {"measurement": "exopolysaccharide production decreased to", "setting": "[3]; 2 MBC", "value": 65, "unit": "%"},
      {"measurement": "exopolysaccharide production decreased to", "setting": "[3]; 4 MBC", "value": 69, "unit": "%"},
      {"measurement": "exopolysaccharide production decreased to", "setting": "[3]; MBC", "value": 89, "unit": "%"},
      {"measurement": "reduction of biofilm formation (biomass), in words", "setting": "[4]; MIC and sub-MIC, crystal violet, Figure 1", "value": "significant (****, p < 0.0001) reduction"},
      {"measurement": "biofilm biomass formed after treatment", "setting": "[4]; MIC, 500 µg/mL", "value": 6, "unit": "%"},
      {"measurement": "inhibition at 500 µg/mL", "setting": "[4]; Pseudomonas aeruginosa, IBRSP001BIOFILM, 500 µg/mL (MIC)", "value": 94, "unit": "%"},
      {"measurement": "decrease of relative expression", "setting": "[5]", "value": 2.2, "unit": "times"},
      {"measurement": "downregulation of relative mRNA level", "setting": "[6]", "value": 3, "unit": "fold"},
      {"measurement": "decrease of relative expression", "setting": "[7]", "value": "about 1.7 times"},
      {"measurement": "decrease of relative expression", "setting": "[8]", "value": "about 1.7 times"},
      {"measurement": "decrease of relative expression", "setting": "[9]", "value": 2.4, "unit": "times"},
      {"measurement": "downregulation of relative mRNA level", "setting": "[10]", "value": 2.6, "unit": "fold"},
      {"measurement": "highest biofilm inhibition", "setting": "[11]; 400 µg/mL", "value": 45.33, "unit": "%"},
      {"measurement": "biofilm inhibition", "setting": "[11]; sub-MIC concentrations 50–400 µg/mL", "value": "up to 50%"},
      {"measurement": "catheter biofilm eradicated", "setting": "[12]; 2 MBC, 24 h old biofilm", "value": 74.2, "unit": "%"},
      {"measurement": "biofilm cells remained viable after the treatment", "setting": "[12]; 24 h old catheter biofilm, concentration not printed (MBC-4MBC tested, probably 4 MBC)", "value": 9.6, "unit": "%"},
      {"measurement": "biofilm inhibition on catheter", "setting": "[13]", "value": 100, "unit": "%"},
      {"measurement": "number of colonies attached to the urinary catheters", "setting": "[13]", "value": 0}
    ]}
  ]
}
